{"source": "paper PMC8602401", "about": "(Scientific Reports, 2021)", "key": {"[1]": {"tested_on": "dog plasma protein", "assay": "EScalate equilibrium shift assay, dog plasma", "format": "in vitro ADME", "settings": "EScalate equilibrium shift assay"}, "[2]": {"assay": "EScalate equilibrium shift assay, dog plasma", "format": "in vitro ADME", "settings": "dog; EScalate equilibrium shift, five dilutions of plasma in PBS, 1 h at room temperature, HPLC-QTOF MS; read-out: Fraction unbound peptide (%), dog"}, "[3]": {"assay": "Pharmacokinetics of oral tablets in dogs", "format": "in vivo", "settings": "oral tablets 20 mg/dog, semaglutide: 300 mg SNAC, uncoated, MEDI7219: 100 mg NaCDC and 200 mg PG, pH 5.5 enteric, n = 9"}, "[4]": {"tested_on": "HFHF fed dogs", "assay": "Dog model of obesity and insulin resistance (HFHF fed dogs), oral tablets", "format": "in vivo", "settings": "for plasma glucose excursions after oral glucose challenge: 10–40 min after glucose, P < 0.05, n = 7–11 per group", "method": "For the single-dose study, dogs were randomized on baseline glucose levels to receive MEDI7219 1 mg or 10 mg or placebo tablets in the morning following an overnight fast (7–11 dogs per group). Ninety minutes after tablet administration, dogs received an oral glucose bolus (200 mg/mL at a 5 mL/kg volume calculated on body weight prior to HFHF feeding), and blood glucose (blood collected via peripheral vein) was measured with an AlphaTRAK glucometer system (Zoetis, Parsippany, NJ, USA) at –90, 0, 10, 20, 30, 40, 50, 60, 75, 90, 120, 180 and 240 min after glucose administration. Approximately 12 weeks later, dogs entered the multiple-dose study and received either MEDI7219 10 mg (n = 12) or placebo tablets (n = 6) once daily for 14 days. Dogs received two cups of HFHF canine diet per day, with feeding 3 h postdose during the 14-day study. Dogs had access to water ad libitum throughout the study. Food intake and body weight were monitored daily. On day 14, after overnight fasting, dogs received their final dose followed by an oral glucose and acetaminophen bolus 90 min after administration. Blood glucose was measured as described previously, and plasma acetaminophen levels were measured by LC/MS method at the same time points."}, "[5]": {"assay": "Bioavailability after intraduodenal administration with permeation enhancers in rats", "format": "in vivo, rat", "method": "Male Sprague Dawley rats (Charles River, Shrewsbury, MA, USA) weighing 250–275 g were housed with ad libitum access to standard chow and water. Test peptides were administered via either an intravenous or a duodenal catheter (4 rats per group) after overnight fasting, and food was returned following 4 h blood collection. Blood was collected via a jugular vein catheter at − 5, 15 and 30 min and 1, 2, 4, 8 and 24 h after intravenous dosing, or for intraduodenal groups at 15 min predose and 0.5, 1, 2, 4, 8, 24 and 48 h postdose. Blood was collected in K2EDTA tubes and kept on wet ice prior to 10 min centrifugation (3000 × g) at 5 °C ± 3 °C. Plasma samples were stored at − 70 °C until analysis.\nFifty or seventy μL aliquots of K2EDTA plasma samples were precipitated with 75% acetonitrile (Sigma-Aldrich) in water (J.T. Baker, Phillipsburg, NJ, USA) (v/v) and centrifuged at 2000 × g. The supernatant was dried under nitrogen at 60 °C, then cooled. Samples were reconstituted in 20% acetonitrile in water (v/v). […] Gradient separation was performed with water and 0.2% formic acid (Thermo Fisher Scientific, Waltham, MA, USA) as mobile phase A, and acetonitrile with 0.2% formic acid as mobile phase B. The method was qualified for the quantification range of 1–1000 ng/mL with accuracy and precision of ± 20%, except for at the lower limit of quantification when the accuracy and precision were ± 25%. Plasma concentrations were subject to noncompartmental analysis consistent with the route of administration using Phoenix WinNonlin (version 7.0, Certara, Princeton, NJ, USA)."}, "[6]": {"tested_on": "db/db mice", "assay": "Dose-response study in diabetic db/db mouse model", "format": "in vivo", "settings": "once-daily subcutaneous for 28 days, n = 9 per group", "method": "Male 7-week-old db/db mice (Charles River, Bristol, UK) were group-housed with ad libitum access to standard chow and water. Mice were randomized to groups of nine mice per group on baseline body weight, HbA1C and 4-h fasting glucose (assessed in tail bleed samples using a Cobas c-111 analyzer [Roche Diagnostics, Indianapolis, IN, USA] and Nova StatStrip Xpress glucometer [DSI, St. Paul, MN, USA]). Insulin was measured in plasma from tail bleeds using a Meso Scale kit. Over 28 days, mice received daily subcutaneous doses of test peptides or placebo (50 mM Tris–HCl, 150 mM mannitol, 0.02% polysorbate 80; pH 8.0)."}, "[7]": {"tested_on": "human plasma protein", "assay": "EScalate equilibrium shift assay, human plasma", "format": "in vitro ADME", "method": "(§1) Binding of peptides to human plasma proteins was determined by the EScalate equilibrium shift assay (Sovicell, Leipzig, Germany), using five dilutions of plasma in phosphate buffered saline and an assumed binding protein concentration of 600 µM. Samples were incubated for 1 h at room temperature then centrifuged to remove the HSA-coated beads. Supernatant samples were analyzed using HPLC (3 µm Phenomenex Aeris Widepore XB-C18 stationary phase) coupled to an electrospray ionization quadrupole time-of-flight mass spectrometer in high resolution accurate mass mode (Agilent, Santa Clara, CA, USA). Unbound fractions were calculated from the concentration-dependent shift in binding equilibrium according to fu=1/1+P/KDPlasma , where P is the concentration of the binding protein in plasma and KDPlasma is the dissociation constant of the compound from plasma proteins in solution."}, "[8]": {"tested_on": "monkey plasma protein", "assay": "EScalate equilibrium shift assay, monkey plasma", "format": "in vitro ADME", "settings": "EScalate equilibrium shift assay", "method": "[The procedure below names another species; the source lists this species under the same test.] as §1"}, "[9]": {"assay": "EScalate equilibrium shift assay, monkey plasma", "format": "in vitro ADME", "settings": "monkey; EScalate equilibrium shift, five dilutions of plasma in PBS, 1 h at room temperature, HPLC-QTOF MS; read-out: Fraction unbound peptide (%), monkey", "method": "[The procedure below names another species; the source lists this species under the same test.] as §1"}, "[10]": {"assay": "Fasted-state simulated intestinal fluid/pancreatin assay", "format": "in vitro ADME", "settings": "FaSSIF with USP pancreatin; 2 h incubation in FaSSIF/USP pancreatin, pre-warmed, agitation; analytical RP-HPLC area under the curve; read-out: peptide remaining intact after incubation in FaSSIF/pancreatin", "method": "Fresh FaSSIF and USP Pancreatin (FaSSIF/p; Sigma-Aldrich) was prepared according to Galia et al[55]. and used immediately. Peptides were dissolved in pre-warmed FaSSIF before addition of pre-warmed FaSSIF/pancreatin with agitation. Samples were analyzed by analytical RP-HPLC to determine remaining intact peptide by area under the curve."}}, "note": "*1 amine or outer side, *2 acyl side, *3 side chain or, on linkers, in order; H or OH if unused. Where a SMILES comes first, the peptide text is derived from it. Side-chain parts run from the residue outwards. [ ]: non-standard residue; d: D form. The star is where a group is joined. γGlu = O=C(O)[C@H](CCC(=O)[*:2])N[*:1]; αMeF = C[C@](N)(Cc1ccccc1)C(=O)O; αMeK = C[C@](N)(CCCCN)C(=O)O; Lauroyl = CCCCCCCCCCCC(=O)*; αMeS = C[C@](N)(CO)C(=O)O; AEEA = NCCOCCOCC(=O)O; Aib = CC(C)(N)C(=O)O"}
{"smiles": "CCCCCCCCCCCC(=O)N[C@@H](CCC(=O)NCCOCCOCC(=O)NCCOCCOCC(=O)NCCCC[C@H](NC(=O)[C@H](C)NC(=O)[C@@H](NC(=O)[C@](C)(Cc1ccccc1)NC(=O)[C@H](CCC(=O)O)NC(=O)[C@](C)(CCCCN)NC(=O)[C@H](C)NC(=O)[C@H](C)NC(=O)[C@H](CCC(=O)O)NC(=O)CNC(=O)[C@H](CCC(=O)O)NC(=O)[C@H](CC(C)C)NC(=O)[C@H](CCCCNC(=O)COCCOCCNC(=O)COCCOCCNC(=O)CC[C@H](NC(=O)CCCCCCCCCCC)C(=O)O)NC(=O)[C@H](CO)NC(=O)[C@](C)(CO)NC(=O)[C@@H](NC(=O)[C@H](CC(=O)O)NC(=O)[C@H](CO)NC(=O)[C@@H](NC(=O)[C@](C)(Cc1ccccc1)NC(=O)[C@H](CO)NC(=O)CNC(=O)[C@H](CCC(=O)O)NC(=O)C(C)(C)NC(=O)[C@@H](N)Cc1c[nH]cn1)[C@@H](C)O)C(C)C)[C@@H](C)CC)C(=O)N[C@H](C(=O)N[C@H](C(=O)N[C@@H](CCC(=O)O)C(=O)NCC(=O)NCC(N)=O)C(C)C)C(C)C)C(=O)O", "note": "[MEDI7219] (H-H[Aib]EGS[αMeF]TSDV[αMeS]SK([AEEA-AEEA-γGlu-Lauroyl])LEGEAA[αMeK]E[αMeF]IAK([AEEA-AEEA-γGlu-Lauroyl])VVEGG-NH2)", "values": [{"measurement": "peptide bound to plasma proteins, dog", "setting": "[1]", "result": "over 97%"}, {"measurement": "fraction unbound at 1 h", "setting": "[2]", "result": 0.0176}, {"measurement": "AUC0-inf", "setting": "[3]; arithmetic mean (% CV)", "result": "13,500 (54.2) ng·h/mL"}, {"measurement": "CL/F (oral clearance)", "setting": "[3]; arithmetic mean (% CV)", "result": "1,880 (52.1) mL/h"}, {"measurement": "Cmax", "setting": "[3]; arithmetic mean (% CV)", "result": "1,450 (63.2) ng/mL"}, {"measurement": "F (bioavailability, systemic fraction)", "setting": "[3]; arithmetic mean (% CV)", "result": "5.92 (54.2) %"}, {"measurement": "Tmax", "setting": "[3]; median (min–max)", "result": "1.5 (1.0–4.5) hours"}, {"measurement": "t½", "setting": "[3]; plasma, LC/MS, arithmetic mean (% CV)", "result": "9.8 (13.2) hours"}, {"measurement": "body weight change over 14 days", "setting": "[4]; once-daily 10 mg oral tablets, 14 days, placebo + 0.71%, P < 0.05, n = 12", "result": "–4.86%"}, {"measurement": "glucose excursions in oral glucose tolerance test, day 14", "setting": "[4]; once-daily 10 mg oral tablets, fasted, postdose day 14, versus placebo, P < 0.01", "result": "significant improvements in glucose excursions"}, {"measurement": "peak plasma acetaminophen concentration (gastric emptying), day 14", "setting": "[4]; once-daily 10 mg oral tablets, oral acetaminophen with glucose bolus, versus placebo", "result": "significantly reduced at 20–40 min (P < 0.05) and delayed"}, {"measurement": "cumulative food intake over 14 days", "setting": "[4]; once-daily 10 mg oral tablets, versus placebo, P < 0.05", "result": "significantly decreased cumulative food intake"}, {"measurement": "plasma glucose excursions after oral glucose challenge", "setting": "[4]; single dose 1 mg oral tablet, versus placebo", "result": "statistically significantly improved"}, {"measurement": "plasma glucose excursions after oral glucose challenge", "setting": "[4]; single dose 10 mg oral tablet, versus placebo", "result": "statistically significantly improved"}, {"measurement": "fold higher mean bioavailability than semaglutide", "setting": "[5]; intraduodenal with permeation enhancers", "result": 13, "unit": "fold"}, {"measurement": "mean bioavailability (%F)", "setting": "[5]; single intraduodenal administration with permeation enhancers (NaCDC and PG), n = 4 per group", "result": 1.01, "unit": "%"}, {"measurement": "HbA1C levels", "setting": "[6]; P < 0.001 versus placebo for doses 1–30 nmol/kg", "result": "dose-dependently reduced HbA1C levels"}, {"measurement": "blood glucose levels over 28 days", "setting": "[6]; significantly lower than placebo at 3–30 nmol/kg (P < 0.001)", "result": "dose-dependently reduced glucose levels"}, {"measurement": "peptide bound to plasma proteins, human", "setting": "[7]; EScalate equilibrium shift assay", "result": "over 97%"}, {"measurement": "Fraction unbound peptide (%), human", "setting": "[7]; EScalate equilibrium shift, HSA-coated beads, five dilutions of plasma in PBS, 1 h at room temperature, HPLC-QTOF MS", "result": 1.75, "unit": "%"}, {"measurement": "peptide bound to plasma proteins, monkey", "setting": "[8]", "result": "over 97%"}, {"measurement": "fraction unbound at 1 h", "setting": "[9]", "result": 0.025}, {"measurement": "remaining at 2 h", "setting": "[10]", "result": "> 60", "unit": "%"}]}
